Assay results: US20070167353A1, “PRODRUG COMPOSITION” (priority 2003, published 2007)
Read-outs that look alike come from different tables or passages of the source.

What was measured:
vaccinia virus = test: microbe, parasite or virus in culture; type: cell-based; conditions: read-out: Vaccinia Plaque Reduction (IC50)
KB cell cytotoxicity = conditions: human, KB cells
Cowpox = test: organism not typed; type: cell-based; conditions: read-out: Cowpox Plaque Reduction (IC50)
[1] = Caco-2 cell homogenates, n = 3
[2] = buffer
KB cell [3] = test system: KB cell
KB cell [4] = test: KB cell cytotoxicity; conditions: read-out: KB cell cytotoxicity (IC50)
[5] = target: T1, human dipeptide transporter, hPept1 (Homo sapiens, UniProt P46059); conditions: for HeLa/hPEPT1 uptake: pH 6
T1 sequence (P46059 1-708): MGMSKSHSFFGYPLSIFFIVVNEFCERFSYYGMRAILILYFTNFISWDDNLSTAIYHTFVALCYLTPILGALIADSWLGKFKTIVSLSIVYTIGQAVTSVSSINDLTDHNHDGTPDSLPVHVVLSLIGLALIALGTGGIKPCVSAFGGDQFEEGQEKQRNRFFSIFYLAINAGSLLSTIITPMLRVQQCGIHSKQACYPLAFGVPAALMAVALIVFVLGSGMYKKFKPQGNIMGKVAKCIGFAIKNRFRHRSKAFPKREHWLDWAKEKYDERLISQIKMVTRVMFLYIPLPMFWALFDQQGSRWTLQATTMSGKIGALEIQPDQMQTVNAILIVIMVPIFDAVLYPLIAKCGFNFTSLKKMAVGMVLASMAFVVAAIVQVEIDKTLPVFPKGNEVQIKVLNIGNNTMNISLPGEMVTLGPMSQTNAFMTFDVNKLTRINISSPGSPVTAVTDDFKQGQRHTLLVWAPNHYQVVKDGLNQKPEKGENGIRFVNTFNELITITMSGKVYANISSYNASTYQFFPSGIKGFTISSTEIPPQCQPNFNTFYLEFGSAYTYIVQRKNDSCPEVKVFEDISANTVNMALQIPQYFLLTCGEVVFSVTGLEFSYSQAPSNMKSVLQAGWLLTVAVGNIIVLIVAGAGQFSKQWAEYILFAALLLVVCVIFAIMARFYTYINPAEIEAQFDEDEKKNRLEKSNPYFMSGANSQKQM

Caco-2 monolayers = test: Caco-2 monolayer transport and stability; type: in vitro ADME; conditions: for Permeability: apical to basolateral, 0.2 mM drug, apical pH 6.0, n = 3; for Stability (% remaining) Apical chamber (donor): percent prodrug remaining in donor solution at 120 minutes; for Stability (% remaining) Basolateral chamber (receiver): percent prodrug remaining in receiver solution at 120 minutes
Protocol: (§1) The transepithelial transport of Ara A, 5′-O-L-valyl Ara A, 5′-O-L-isoleucyl Ara A is tested in Caco-2 monolayers grown in transwell filters following standard procedures as described in detail in Landowski, C. P. et al., Pharm Res, 2005. 22(9): p. 1510-8. In these experiments, transport studies are performed 21 days post-seeding. The assay is initiated by adding drug transport solution (0.2 mM drug in MES buffer, pH 6.0 containing 5 mM D-glucose, 5 mM MES, 1 mM CaCl2, 1 mM MgCl2, 150 mM NaCl, 3 mM KCl, 1 mM NaH2PO4) to the apical chamber of the Caco-2 insert. Two hundred microliter aliquots are withdrawn from the basolateral chamber at predetermined intervals and replaced with fresh HEPES pH 7.4 buffer. The epithelial integrity of representative cell monolayers is assessed by monitoring transepithelial resistance. In these assays, the stability of the drug in both chambers of the insert is also monitored. […] Importantly, the prodrugs are stable, showing minimal metabolism to Ara A and Ara-H over a 2-hour time frame.

[6] = Intestinal absorption after direct duodenal injection in anesthetized rats, plasma by LC/MS/MS; conditions: for AUC0-4 hr of Prodrug: rat plasma, duodenal injection of the named prodrug
Protocol: The systemic plasma profiles of the prodrug, Ara A, and its main metabolite, Ara H are then monitored by removing plasma from a jugular vein cannula over a 4 hour period and assaying by LC/MS/MS assay.
Animals were dosed with Ara A at a level of 1.5 mg/rat via direct duodenal injection into anesthetized rats (n=2 per compound). Plasma samples were taken from the jugular vein at 0, 1, 2, and 4 hours from the jugular vein and were assayed for Ara A (▪), and Ara H (♦) by LC/MS/MS.
Animals were dosed with 5′-O-L isoleucyl Ara A prodrug at a level of 2.7 mg/rat via direct duodenal injection into anesthetized rats (n=3 per compound). Plasma samples were taken from the jugular vein at 0, 0.5, 1, 2, and 4 hours from the jugular vein and were assayed for prodrug (□), Ara A (▪), and Ara H (♦) by LC/MS/MS.
(§2) FIG. 6 is a graph showing mean plasma profiles of Ara A, Ara H, and 5′-O-D Isoleucyl Ara A after administration of 5′-O-D Isoleucyl Ara A into the duodenum of a rat. Animals were dosed with 5′-O-D Isoleucyl Ara A prodrug at a level of 2.7 mg/rat via direct duodenal injection into anesthetized rats (n=2). Plasma samples were taken from the jugular vein at 0, 0.5, 1, 2, and 4 hours from the jugular vein and were assayed for prodrug (□), Ara A (▪), and Ara H (♦) by LC/MS/MS.
as §2, with “7” for “6”, “5′-O-L Valyl” for “5′-O-D Isoleucyl”, “3” for “2.7”
as §2, with “FIG. 8” for “FIG. 6”, “5′-O-D Valyl” for “5′-O-D Isoleucyl”, “of 3.0” for “of 2.7”, “rats (n=3).” for “rats (n=2).”, “and ara” for “and Ara”
as §2, with “9” for “6”, “5′-O-Glycyl” for “5′-O-D Isoleucyl”, “3.0” for “2.7”

adenosine deaminase = test: Stability in the presence of adenosine deaminase; type: biochemical; conditions: FIG. 3A
[7] = Caco-2 monolayer transport and stability; type: in vitro ADME; conditions: human, Caco-2, pH 6
Protocol: as §1

[8] = Solubility testing in water; type: physicochemical; conditions: thermodynamic from solid; water added dropwise to 5 mg
Protocol: Water is added dropwise to 5 mg of each prodrug with intermittent stirring until the drug is fully dissolved. All of the Ara A prodrugs dissolved prior to the addition of 0.19 ml of water or at a concentration>26 mg/ml water. In contrast, unmodified Ara A is poorly soluble (<0.5 mg/ml) under these conditions.

[9] = Orthopoxvirus vaccinia, HFF, 72 h

For `Nc1ccn(C[C@@H](CO)OCP(=O)(O)O)c(=O)n1` [Cidofovir, reference compound], the IC50 (vaccinia virus; [9]) was 26 µM, the IC50 (KB cell cytotoxicity) was > 100 µM and the IC50 (Cowpox) was 30 µM.

With `Nc1ncnc2c1ncn2[C@@H]1O[C@H](COC(=O)[C@@H](N)Cc2ccccc2)[C@@H](O)[C@@H]1O` [5′-O-L-phenylalanyl Ara A] the IC50 (vaccinia virus; HFF cells, 3 days) was 20 µM, the “t1/2 Caco-2” value [1] was 3.5 ± 1.0 min and the “t1/2 pH 7.4” value [2] was 420.9 ± 40.1 min. The IC50 (KB cell [3]) was > 100 µM.

With `CC(C)[C@H](N)C(=O)OC[C@H]1O[C@@H](n2cnc3c(N)ncnc32)[C@@H](O)[C@@H]1O` [5′-O-L-valyl Ara A] the IC50 (vaccinia virus; HFF cells, 3 days) was 12 µM, the “t1/2 Caco-2” value [1] was 11.1 ± 0.4 min and the IC50 (KB cell [4]) was 65 µM. For the same molecule, the hPepT1/Control [5] was 20.7, the HeLa/hPEPT1 uptake [5] was 80.3 ± 1.1 and the Permeability (Caco-2 monolayers) was 3.86 ± 0.03 ×10^−6, cm/s. For the same molecule, the “Stability (% remaining) Apical chamber (donor)” value (Caco-2 monolayers) was 82.1%, the “Stability (% remaining) Basolateral chamber (receiver)” value (Caco-2 monolayers) was 62.0% and the “AUC0-4 hr of Prodrug” value [6] was 195 ± 25 ng·h/mL. The “plasma Ara A levels after dosing (in words)” value ([6]; rat, duodenal injection) was “Increased levels of plasma Ara A”.

With `O=c1[nH]cnc2c1ncn2[C@@H]1O[C@H](CO)[C@@H](O)[C@@H]1O` [Ara-H, 9-(beta-D-arabinofuranosyl) hypoxanthine] the IC50 (Cowpox) was > 100 µM.

For `CC[C@H](C)[C@H](N)C(=O)OC[C@H]1O[C@@H](n2cnc3c(N)ncnc32)[C@@H](O)[C@@H]1O` [5′-O-L-isoleucyl Ara A], the IC50 (vaccinia virus; HFF cells, 3 days) was 4.5 µM, the “t1/2 Caco-2” value [1] was 27.0 ± 1.3 min and the IC50 (KB cell [4]) was > 100 µM. For the same molecule, the hPepT1/Control [5] was 26.9, the HeLa/hPEPT1 uptake [5] was 202.0 ± 4.8 and the Permeability (Caco-2 monolayers) was 5.66 ± 0.14 ×10^−6, cm/s. For the same molecule, the “Stability (% remaining) Apical chamber (donor)” value (Caco-2 monolayers) was 89.6%, the “Stability (% remaining) Basolateral chamber (receiver)” value (Caco-2 monolayers) was 77.5% and the “AUC0-4 hr of Prodrug” value [6] was 658 ± 314 ng·h/mL. For the same molecule, the “fold increase in circulating Ara A levels over dosing with Ara A” value ([6]; rat, duodenal injection) was > 20 fold, the “percent of total drug measured in plasma found to be Ara-H” value ([6]; rat, in vivo) was ~15% and the “percent of total drug measured in plasma present as Ara A” value ([6]; rat, in vivo) was “approximately 17%”. For the same molecule, the “percent of total drug measured in plasma present as prodrug” value ([6]; rat, in vivo) was ~68%.

In the case of `Nc1ncnc2c1ncn2[C@@H]1O[C@H](COC(=O)[C@@H]2CCCN2)[C@@H](O)[C@@H]1O` [5′-O-L-prolyl Ara A], the IC50 (vaccinia virus; HFF cells, 3 days) is reported as 12 µM, the “t1/2 Caco-2” value [1] is reported as 1.3 ± 0.005 min and the “t1/2 pH 7.4” value [2] is reported as 20.1 ± 1.0 min. For the same molecule, the hPepT1/Control [5] was 1.06, the HeLa/hPEPT1 uptake [5] was 40.8 ± 1.0 and the IC50 (KB cell [3]) was 45 µM.

For `Nc1ncnc2c1ncn2[C@@H]1O[C@H](CO)[C@@H](O)[C@@H]1O` [Ara A, Adenine 9-beta-D-arabinofuranoside, reference compound], the “deamination by adenosine deaminase (in words)” value (adenosine deaminase) was “rapidly hydrolyzed”, the IC50 (vaccinia virus; [9]) was 5 µM and the IC50 (KB cell cytotoxicity) was > 100 µM. The Papp A→B at 2 h, 0.2 mM [7] was 1.42 ± 0.05 ×10⁻⁶ cm/s, the IC50 (Cowpox) was 6.5 µM and the solubility [8] was < 500 µg/mL.
